Test results published in PubChem BioAssay (NCI).
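Compound exposure: 48 hours, 5 concentrations, 96-well plates. At the GI50, growth is halved. TGI: concentration producing complete growth inhibition.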

What was measured:
Test in all cases: NCI anticancer screen, dose series, 48 h
786-0 renal = test system: 786-0 renal
A498 renal = test system: A498 renal
A549 NSCLC = test system: A549 NSCLC
BT-549 breast = test system: BT-549 breast
CCRF-CEM leukemia = test system: CCRF-CEM leukemia
COLO 205 colon = test system: COLO 205 colon
DU-145 prostate = test system: DU-145 prostate
EKVX NSCLC = test system: EKVX NSCLC
HCC-2998 colon = test system: HCC-2998 colon
HCT-116 colon = test system: HCT-116 colon
HCT-15 colon = test system: HCT-15 colon
HOP-62 NSCLC = test system: HOP-62 NSCLC
HOP-92 NSCLC = test system: HOP-92 NSCLC
HS 578T breast = test system: HS 578T breast
HT29 colon = test system: HT29 colon
IGROV1 ovarian = test system: IGROV1 ovarian
K-562 leukemia = test system: K-562 leukemia
KM12 colon = test system: KM12 colon
LOX IMVI melanoma = test system: LOX IMVI melanoma
M14 melanoma = test system: M14 melanoma
MCF7 breast = test system: MCF7 breast
MDA-MB-231 breast = test system: MDA-MB-231 breast
MDA-MB-435 = test system: MDA-MB-435
MOLT-4 leukemia = test system: MOLT-4 leukemia
NCI-H226 lung = test system: NCI-H226 lung
NCI-H23 lung = test system: NCI-H23 lung
NCI-H460 lung = test system: NCI-H460 lung
NCI-H522 lung = test system: NCI-H522 lung
NCI/ADR-RES ovarian = test system: NCI/ADR-RES ovarian
OVCAR-3 ovarian = test system: OVCAR-3 ovarian
OVCAR-4 ovarian = test system: OVCAR-4 ovarian
OVCAR-5 ovarian = test system: OVCAR-5 ovarian
OVCAR-8 ovarian = test system: OVCAR-8 ovarian
PC-3 prostate = test system: PC-3 prostate
RPMI-8226 leukemia = test system: RPMI-8226 leukemia
RXF 393 renal = test system: RXF 393 renal
SF-268 CNS = test system: SF-268 CNS
SF-295 CNS = test system: SF-295 CNS
SF-539 CNS = test system: SF-539 CNS
SK-MEL-2 melanoma = test system: SK-MEL-2 melanoma
SK-MEL-28 melanoma = test system: SK-MEL-28 melanoma
SK-MEL-5 melanoma = test system: SK-MEL-5 melanoma
SK-OV-3 ovarian = test system: SK-OV-3 ovarian
SN12C renal = test system: SN12C renal
SNB-19 CNS = test system: SNB-19 CNS
SNB-75 CNS = test system: SNB-75 CNS
SR leukemia = test system: SR leukemia
SW-620 colon = test system: SW-620 colon
TK-10 renal = test system: TK-10 renal
U251 CNS = test system: U251 CNS
UACC-257 melanoma = test system: UACC-257 melanoma
UACC-62 melanoma = test system: UACC-62 melanoma
UO-31 renal = test system: UO-31 renal

COC(=O)[C@@H](C)C[C@H](Cc1ccccc1)NC(=O)c1csc([C@@H](C[C@H](C(C)C)N(C)C(=O)[C@H](C)NC(=O)[C@H]2CCCCN2C)OC(C)=O)n1
GI50 (786-0 renal): 1050 nM | TGI (786-0 renal): > 25000 nM | GI50 (A498 renal): 1870 nM | TGI (A498 renal): 14100 nM | GI50 (A549 NSCLC): 8670 nM | TGI (A549 NSCLC): > 25000 nM | GI50 (BT-549 breast): 979 nM | TGI (BT-549 breast): 17500 nM | GI50 (CCRF-CEM leukemia): 1050 nM | TGI (CCRF-CEM leukemia): > 25000 nM | GI50 (COLO 205 colon): 1120 nM | TGI (COLO 205 colon): 20200 nM | GI50 (DU-145 prostate): 1050 nM | TGI (DU-145 prostate): > 25000 nM | GI50 (EKVX NSCLC): 5740 nM | TGI (EKVX NSCLC): > 25000 nM | GI50 (HCC-2998 colon): 1750 nM | TGI (HCC-2998 colon): > 25000 nM | GI50 (HCT-116 colon): 774 nM | TGI (HCT-116 colon): > 25000 nM | GI50 (HCT-15 colon): 3370 nM | TGI (HCT-15 colon): > 25000 nM | GI50 (HOP-62 NSCLC): 3270 nM | TGI (HOP-62 NSCLC): > 25000 nM | GI50 (HOP-92 NSCLC): 982 nM | TGI (HOP-92 NSCLC): > 25000 nM | GI50 (HS 578T breast): 1390 nM | TGI (HS 578T breast): > 25000 nM | GI50 (HT29 colon): 816 nM | TGI (HT29 colon): > 25000 nM | GI50 (IGROV1 ovarian): 1140 nM | TGI (IGROV1 ovarian): > 25000 nM | GI50 (K-562 leukemia): 278 nM | TGI (K-562 leukemia): > 25000 nM | GI50 (KM12 colon): 1110 nM | TGI (KM12 colon): > 25000 nM | GI50 (LOX IMVI melanoma): 1740 nM | TGI (LOX IMVI melanoma): > 25000 nM | GI50 (M14 melanoma): 859 nM | TGI (M14 melanoma): 11300 nM | GI50 (MCF7 breast): 437 nM | TGI (MCF7 breast): > 25000 nM | GI50 (MDA-MB-231 breast): 1240 nM | TGI (MDA-MB-231 breast): > 25000 nM | GI50 (MDA-MB-435): 121 nM | TGI (MDA-MB-435): 522 nM | GI50 (MOLT-4 leukemia): 2220 nM | TGI (MOLT-4 leukemia): > 25000 nM | GI50 (NCI-H226 lung): > 25000 nM | TGI (NCI-H226 lung): > 25000 nM | GI50 (NCI-H23 lung): 7550 nM | TGI (NCI-H23 lung): > 25000 nM | GI50 (NCI-H460 lung): 1180 nM | TGI (NCI-H460 lung): > 25000 nM | GI50 (NCI-H522 lung): 384 nM | TGI (NCI-H522 lung): 1350 nM | GI50 (NCI/ADR-RES ovarian): > 25000 nM | TGI (NCI/ADR-RES ovarian): > 25000 nM | GI50 (OVCAR-3 ovarian): 551 nM | TGI (OVCAR-3 ovarian): > 25000 nM | GI50 (OVCAR-4 ovarian): 2050 nM | TGI (OVCAR-4 ovarian): > 25000 nM | GI50 (OVCAR-5 ovarian): 9480 nM | TGI (OVCAR-5 ovarian): > 25000 nM | GI50 (OVCAR-8 ovarian): 3670 nM | TGI (OVCAR-8 ovarian): > 25000 nM | GI50 (PC-3 prostate): 821 nM | TGI (PC-3 prostate): > 25000 nM | GI50 (RPMI-8226 leukemia): 567 nM | TGI (RPMI-8226 leukemia): > 25000 nM | GI50 (RXF 393 renal): 1000 nM | TGI (RXF 393 renal): 24200 nM | GI50 (SF-268 CNS): 1650 nM | TGI (SF-268 CNS): > 25000 nM | GI50 (SF-295 CNS): 3950 nM | TGI (SF-295 CNS): > 25000 nM | GI50 (SF-539 CNS): 1420 nM | TGI (SF-539 CNS): 20600 nM | GI50 (SK-MEL-2 melanoma): 929 nM | TGI (SK-MEL-2 melanoma): > 25000 nM | GI50 (SK-MEL-28 melanoma): > 25000 nM | TGI (SK-MEL-28 melanoma): > 25000 nM | GI50 (SK-MEL-5 melanoma): 860 nM | TGI (SK-MEL-5 melanoma): > 25000 nM | GI50 (SK-OV-3 ovarian): 11000 nM | TGI (SK-OV-3 ovarian): > 25000 nM | GI50 (SN12C renal): 2080 nM | TGI (SN12C renal): > 25000 nM | GI50 (SNB-19 CNS): 901 nM | TGI (SNB-19 CNS): > 25000 nM | GI50 (SNB-75 CNS): 470 nM | TGI (SNB-75 CNS): 1710 nM | GI50 (SR leukemia): 452 nM | TGI (SR leukemia): > 25000 nM | GI50 (SW-620 colon): 861 nM | TGI (SW-620 colon): > 25000 nM | GI50 (TK-10 renal): > 25000 nM | TGI (TK-10 renal): > 25000 nM | GI50 (U251 CNS): 1580 nM | TGI (U251 CNS): > 25000 nM | GI50 (UACC-257 melanoma): > 25000 nM | TGI (UACC-257 melanoma): > 25000 nM | GI50 (UACC-62 melanoma): 1270 nM | TGI (UACC-62 melanoma): > 25000 nM | GI50 (UO-31 renal): 19200 nM | TGI (UO-31 renal): > 25000 nM
